Test system: Escherichia coli strain ATCC25922
Experiment: standard microdilution assay to determine minimum inhibitory concentrations (MICs)
Format: cell-based
Settings: Escherichia coli strain ATCC25922, microdilution
Protocol: The in vitro activity of the compounds of the present invention can be determined. Antimicrobial testing is typically performed to determine the minimum inhibitory concentration (MIC). Minimum inhibitory concentrations (MICs) are determined by the microdilution method in a final volume of 100 μl according to protocols outlined by The Clinical and Laboratory Standards Institute (CLSI). Performance standards for reference strains are assessed within the same experimental design to maintain quality control. See, for example, Clinical Laboratory Standards Institute: Methods for dilution antimicrobial susceptibility tests for bacteria that grow aerobically M7-A8. Approved Standard-Eighth Edition. Wayne, Pa.: CLSI; December 2008; and Clinical Laboratory Standards Institute: Performance Standards for Antimicrobial Susceptibility Testing M100-S20; Approved Standard-Twentieth Edition. Wayne, Pa.: CLSI; June 2010.
The compounds of the present invention were tested for antimicrobial activity. […] The compounds were run against Escherichia coli strain ATCC25922 using a standard microdilution assay to determine minimum inhibitory concentrations (MICs). […] A “N/A” means that data is unavailable. It will be recognized by one skilled in the art that the compounds can be assessed against other bacterial organisms and that the presentation of data for activity against Escherichia coli is illustrative and in no way is intended to limit the scope of the present invention. The compounds of the present invention can be assayed against a range of other microorganisms depending upon the performance activity desired to be gathered. Furthermore, the “+”, “−”, and “N/A” representation and the selection of a cutoff value of 16 micrograms/ml is also illustrative and in no way is intended to limit the scope of the present invention.

SMILES | E. coli ATCC25922 MIC
N=C(N)NCCCNCc1ccc(-n2cc3cc(-c4cc(CCCCN)cc(-n5ccnc5)c4)[nH]c3nc2=O)cc1 [Compound 59] | + (a “+” indicates that the compound has an MIC value of 16 micrograms/ml or less)
N=C(N)NCCCNCc1ccc(-n2cc3cc(-c4cc(CCCO)cc(OC(F)(F)F)c4)[nH]c3nc2=O)cc1 [Compound 60] | − (a “−” indicates that the compound has an MIC value greater than 16 micrograms/ml)
N=C(N)NCCCNCc1ccc(-n2cc3cc(-c4cc(CCCCN)cc(-c5cccnc5)c4)[nH]c3nc2=O)cc1 [Compound 61] | + (a “+” indicates that the compound has an MIC value of 16 micrograms/ml or less)
NCCCCc1cc(Cl)c(Cl)c(-c2cc3cn(-c4ccc(CNCCCN=C(N)N)cc4)c(=O)nc3[nH]2)c1 [Compound 62] | + (a “+” indicates that the compound has an MIC value of 16 micrograms/ml or less)
Cc1cc(CCCCN)cc(-c2cc3cn(-c4ccc(CNCCCN=C(N)N)cc4)c(=O)nc3[nH]2)c1Cl [Compound 63] | + (a “+” indicates that the compound has an MIC value of 16 micrograms/ml or less)
NCCCCc1cc(-c2cc3cn(-c4ccc(CNCCCN=C(N)N)cc4)c(=O)nc3[nH]2)c(Cl)c(C(F)(F)F)c1 [Compound 64] | + (a “+” indicates that the compound has an MIC value of 16 micrograms/ml or less)
NCCCCc1cc(OC(F)(F)F)c(Cl)c(-c2cc3cn(-c4ccc(CNCCCN=C(N)N)cc4)c(=O)nc3[nH]2)c1 [Compound 65] | + (a “+” indicates that the compound has an MIC value of 16 micrograms/ml or less)
NC(N)=NCCCNCc1ccc(-n2cc3cc(-c4cccc(CCCO)c4)[nH]c3nc2=O)cc1 [Compound 66] | − (a “−” indicates that the compound has an MIC value greater than 16 micrograms/ml)
C[C@H](NCCCNC(=N)N)c1ccc(-n2cc3cc(-c4cc(CCCCN)cc(F)c4Cl)[nH]c3nc2=O)cc1 [Compound 67] | + (a “+” indicates that the compound has an MIC value of 16 micrograms/ml or less)
NCCCCc1cc(SC(F)(F)F)cc(-c2cc3cn(-c4ccc(CNCCCN=C(N)N)c(F)c4)c(=O)nc3[nH]2)c1 [Compound 68] | + (a “+” indicates that the compound has an MIC value of 16 micrograms/ml or less)
C[C@H](NCCCNC(=N)N)c1ccc(-n2cc3cc(-c4cc(CCCCN)cc(SC(F)(F)F)c4)[nH]c3nc2=O)cc1 [Compound 69] | + (a “+” indicates that the compound has an MIC value of 16 micrograms/ml or less)
C[C@H](NCCCNC(=N)N)c1ccc(-n2cc3cc(-c4cc(COCCN)cc(OC(F)(F)F)c4)[nH]c3nc2=O)cc1 [Compound 70] | + (a “+” indicates that the compound has an MIC value of 16 micrograms/ml or less)
NCCCCc1cc(F)c(Cl)c(-c2cc3cn(-c4ccc(CNCCCN=C(N)N)c(F)c4)c(=O)nc3[nH]2)c1 [Compound 71] | + (a “+” indicates that the compound has an MIC value of 16 micrograms/ml or less)
Cc1cc(-c2cc3cn(-c4ccc(CNCCCN=C(N)N)cc4)c(=O)nc3[nH]2)cc(CCCCN)c1F [Compound 73] | + (a “+” indicates that the compound has an MIC value of 16 micrograms/ml or less)
Cc1cc(-c2cc3cn(-c4ccc(CNCCCN=C(N)N)cc4)c(=O)nc3[nH]2)cc(CCCCNC(=N)N)c1F [Compound 74] | + (a “+” indicates that the compound has an MIC value of 16 micrograms/ml or less)
NCCC[C@H](O)c1cc(OC(F)(F)F)cc(-c2cc3cn(-c4ccc(CNCCCN=C(N)N)cc4)c(=O)nc3[nH]2)c1 [Compound 75] | + (a “+” indicates that the compound has an MIC value of 16 micrograms/ml or less)
NCCC[C@@H](O)c1cc(OC(F)(F)F)cc(-c2cc3cn(-c4ccc(CNCCCN=C(N)N)cc4)c(=O)nc3[nH]2)c1 [Compound 76] | + (a “+” indicates that the compound has an MIC value of 16 micrograms/ml or less)
CC(C)c1cc(CCCCN)cc(-c2cc3cn(-c4ccc(CNCCCN=C(N)N)c(F)c4)c(=O)nc3[nH]2)c1 [Compound 77] | + (a “+” indicates that the compound has an MIC value of 16 micrograms/ml or less)
CC(C)c1cc(CCCCN)cc(-c2cc3cn(-c4ccc([C@H](C)NCCCNC(=N)N)cc4)c(=O)nc3[nH]2)c1 [Compound 78] | + (a “+” indicates that the compound has an MIC value of 16 micrograms/ml or less)
NCc1cc(CCCO)cc(-c2cc3cn(-c4ccc(CNCCCN=C(N)N)cc4)c(=O)nc3[nH]2)c1 [Compound 79] | + (a “+” indicates that the compound has an MIC value of 16 micrograms/ml or less)

SMILES | E. coli ATCC25922 MIC
NCCCCc1cc(-c2cc3cn(-c4ccc(CNCCCN=C(N)N)c(F)c4)c(=O)nc3[nH]2)cc(C(F)(F)F)c1 [Compound 80] | + (a “+” indicates that the compound has an MIC value of 16 micrograms/ml or less)
NC(N)=NCCCNCc1ccc(-n2cc3cc(-c4cc(CCCO)ccc4Cl)[nH]c3nc2=O)cc1 [Compound 82] | + (a “+” indicates that the compound has an MIC value of 16 micrograms/ml or less)
COc1cc(F)c(-c2cc3cn(-c4ccc(CNCCCN=C(N)N)cc4)c(=O)nc3[nH]2)cc1CCCCN [Compound 83] | + (a “+” indicates that the compound has an MIC value of 16 micrograms/ml or less)
NCCCCc1c(F)ccc(-c2cc3cn(-c4ccc(CNCCCN=C(N)N)cc4)c(=O)nc3[nH]2)c1F [Compound 84] | + (a “+” indicates that the compound has an MIC value of 16 micrograms/ml or less)
NCCCCc1cc(OC(F)(F)F)cc(-c2cc3cn(-c4ccc(CNCCCN=C(N)N)cc4F)c(=O)nc3[nH]2)c1 [Compound 90] | + (a “+” indicates that the compound has an MIC value of 16 micrograms/ml or less)
NCCCCc1cc(Cl)c(F)c(-c2cc3cn(-c4ccc(CNCCCN=C(N)N)cc4)c(=O)nc3[nH]2)c1 [Compound 91] | + (a “+” indicates that the compound has an MIC value of 16 micrograms/ml or less)
NCCCCc1cc(SC(F)(F)F)c(Cl)c(-c2cc3cn(-c4ccc(CNCCCN=C(N)N)cc4)c(=O)nc3[nH]2)c1 [Compound 92] | + (a “+” indicates that the compound has an MIC value of 16 micrograms/ml or less)
CC(CCN)Cc1cc(OC(F)(F)F)cc(-c2cc3cn(-c4ccc(CNCCCNC(=N)N)cc4)c(=O)nc3[nH]2)c1 (stereo not shown) [Compound 93] | + (a “+” indicates that the compound has an MIC value of 16 micrograms/ml or less)
CC(CCCN)c1cc(OC(F)(F)F)cc(-c2cc3cn(-c4ccc(CNCCCNC(=N)N)cc4)c(=O)nc3[nH]2)c1 (stereo not shown) [Compound 94] | + (a “+” indicates that the compound has an MIC value of 16 micrograms/ml or less)
C=C(CCCN)c1cc(OC(F)(F)F)cc(-c2cc3cn(-c4ccc(CNCCCNC(=N)N)cc4)c(=O)nc3[nH]2)c1 [Compound 95] | + (a “+” indicates that the compound has an MIC value of 16 micrograms/ml or less)
N=C(N)NCCCNCc1ccc(-n2cc3cc(-c4cc(CCC5(CN)CCC5)cc(OC(F)(F)F)c4)[nH]c3nc2=O)cc1 [Compound 96] | + (a “+” indicates that the compound has an MIC value of 16 micrograms/ml or less)
CC(C)c1cc(CCC(C)(C)CN)cc(-c2cc3cn(-c4ccc(CNCCCNC(=N)N)cc4)c(=O)nc3[nH]2)c1 [Compound 97] | + (a “+” indicates that the compound has an MIC value of 16 micrograms/ml or less)
CC(C)c1cc(CCC2(CN)CCC2)cc(-c2cc3cn(-c4ccc(CNCCCNC(=N)N)cc4)c(=O)nc3[nH]2)c1 [Compound 103] | + (a “+” indicates that the compound has an MIC value of 16 micrograms/ml or less)
CC(C)(CN)CCc1cc(OC(F)(F)F)cc(-c2cc3cn(-c4ccc(CNCCCNC(=N)N)cc4)c(=O)nc3[nH]2)c1 [Compound 104] | + (a “+” indicates that the compound has an MIC value of 16 micrograms/ml or less)
N=C(N)NCCCNCc1ccc(-n2cc3cc(-c4cc(CCCCN)cc(OC(F)(F)F)c4F)[nH]c3nc2=O)cc1 [Compound 107] | + (a “+” indicates that the compound has an MIC value of 16 micrograms/ml or less)
Cc1c(Cl)cc(CCCCN)cc1-c1cc2cn(-c3ccc(CNCCCNC(=N)N)cc3)c(=O)nc2[nH]1 [Compound 108] | + (a “+” indicates that the compound has an MIC value of 16 micrograms/ml or less)
Cc1c(Cl)cc(-c2cc3cn(-c4ccc(CNCCCNC(=N)N)cc4)c(=O)nc3[nH]2)cc1CCCCN [Compound 109] | + (a “+” indicates that the compound has an MIC value of 16 micrograms/ml or less)
N=C(N)NCCCNCc1ccc(-n2cc3cc(-c4cc(C5CC5CN)cc(C(F)(F)F)c4)[nH]c3nc2=O)cc1 (stereo not shown) [Compound 110] | + (a “+” indicates that the compound has an MIC value of 16 micrograms/ml or less)
N=C(N)NCCCNCc1ccc(-n2cc3cc(-c4cc(CCCCN)cc(C(F)(F)F)c4F)[nH]c3nc2=O)cc1 [Compound 111] | + (a “+” indicates that the compound has an MIC value of 16 micrograms/ml or less)
N=C(N)NCCCNCc1ccc(-n2cc3cc(-c4cc(OC(F)(F)F)cc(C(F)(F)CCCN)c4)[nH]c3nc2=O)cc1 [Compound 112] | + (a “+” indicates that the compound has an MIC value of 16 micrograms/ml or less)
